Patent publication US6737383B1, “Herbicidal oxadiazolidines” (priority 1999, dated 2004)

Assays:
[1] = system: bedstraw; test: Test B pre/postemergence bedstraw; assay type: in vivo, Galium aparine
Outline: (§1)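 Herbicidal effect was estimated by eye on a ten-point control scale after plants spent twelve to sixteen days in a greenhouse following soil or foliar treatment. Foliar sprays targeted plants at one to four leaves; all doses were formulated in a non-phytotoxic solvent with surfactant.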

[2] = system: blackgrass; test: Test B pre/postemergence blackgrass; assay type: in vivo, Alopecurus myosuroides
Outline: as §1

[3] = system: surinam grass; test: Test B pre/postemergence surinam grass; assay type: in vivo, Brachiaria decumbens
Outline: as §1

[4] = system: corn; test: Test B pre/postemergence corn; assay type: in vivo, Zea mays
Outline: as §1

[5] = system: crabgrass; test: Test B pre/postemergence crabgrass; assay type: in vivo, Digitaria sanguinalis
Outline: as §1

[6] = system: pigweed; test: Test B pre/postemergence pigweed; assay type: in vivo, Amaranthus retroflexus
Outline: as §1

[7] = system: rape; test: Test B pre/postemergence rape; assay type: in vivo, Brassica napus
Outline: as §1

[8] = system: soybean; test: Test B pre/postemergence soybean; assay type: in vivo, Glycine max
Outline: as §1

[9] = system: sugar beet; test: Test B pre/postemergence sugar beet; assay type: in vivo, Beta vulgaris
Outline: as §1

[10] = system: velvetleaf; test: Test B pre/postemergence velvetleaf; assay type: in vivo, Abutilon theophrasti
Outline: as §1

[11] = system: wheat; test: Test B pre/postemergence wheat; assay type: in vivo, Triticum aestivum
Outline: as §1

[12] = system: wild oat; test: Test B pre/postemergence wild oat; assay type: in vivo, Avena fatua
Outline: as §1

[13] = system: purple nutsedge; test: Test B pre/postemergence purple nutsedge; assay type: in vivo, Cyperus rotundus
Outline: as §1

[14] = system: rice; test: Test B flood test rice; assay type: in vivo, Oryza sativa
Outline: (§2)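 Plants were grown to the 2-leaf stage before treatment with test chemical, then held in a greenhouse for twelve to sixteen days. Injury was visually rated against untreated controls on a 0–10 scale, where 0 is no effect and 10 is complete control.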

[15] = system: smallflower flatsedge; test: Test B flood test smallflower flatsedge; assay type: in vivo, Cyperus difformis
Outline: as §2

[16] = system: duck salad; test: Test B flood test duck salad; assay type: in vivo, Heteranthera limosa
Outline: as §2

[17] = Postemergence, Rate 62 g/ha, scale 0 to 10, 0 is no effect, 10 is complete control
[18] = Postemergence, Rate 250 g/ha, scale 0 to 10, 0 no effect, 10 complete control
[19] = Preemergence, Rate 31 g/ha, visual rating, scale 0 to 10 (0 no effect, 10 complete control)
[20] = Preemergence, Rate 62 g/ha, scale 0 to 10, 0 is no effect, 10 is complete control
[21] = Preemergence, Rate 125 g/ha, scale 0 to 10 (0 no effect, 10 complete control)
[22] = Preemergence, Rate 250 g/ha, scale of 0 to 10 where 0 is no effect and 10 is complete control
[23] = Rate 31 g/ha, Postemergence, scale 0 to 10
[24] = Rate 125 g/ha, Postemergence, scale 0 to 10, 0 no effect, 10 complete control
[25] = Rate 125 g/ha, Postemergence section (flood test species), scale 0 to 10, 0 no effect, 10 complete control
[26] = Rate 500 g/ha, Postemergence section of Table B, 0 to 10 scale (0 no effect, 10 complete control)
[27] = flood test, listed under Postemergence, Rate 250 g/ha, scale 0 to 10, 0 no effect, 10 complete control

Cc1cccc(C)c1-n1c(=O)on(C(=O)N(c2ccc(F)cc2F)C(C)C)c1=O [Compound 28]
0: Bedstraw plant response rating [1, 19] | Plant response rating, Bedstraw [1, 20] | Plant response rating, Bedstraw [1, 21] | Blackgrass plant response rating [2, 17] | Blackgrass plant response rating [2, 19] | Plant response rating, Blackgrass [2, 20] | Plant response rating, Blackgrass [2, 21] | Blackgrass plant response rating [2, 23] | B. signalgrass plant response rating [3, 17] | B. signalgrass plant response rating [3, 18] | B. signalgrass plant response rating [3, 19] | Plant response rating, B. signalgrass [3, 20] | Plant response rating, B. signalgrass [3, 21] | Plant response rating, B. signalgrass [3, 22] | B. signalgrass plant response rating [3, 23] | B. signalgrass plant response rating [3, 24] | Corn plant response rating [4, 17] | Corn plant response rating [4, 18] | Corn plant response rating [4, 19] | Plant response rating, Corn [4, 20] | Plant response rating, Corn [4, 21] | Plant response rating, Corn [4, 22] | Corn plant response rating [4, 23] | Corn plant response rating [4, 24] | Redroot pigweed plant response rating [6, 17] | Redroot pigweed plant response rating [6, 19] | Plant response rating, Redroot pigweed [6, 20] | Plant response rating, Redroot pigweed [6, 21] | Redroot pigweed plant response rating [6, 23] | Rape plant response rating [7, 17] | Rape plant response rating [7, 18] | Rape plant response rating [7, 19] | Plant response rating, Rape [7, 20] | Plant response rating, Rape [7, 21] | Plant response rating, Rape [7, 22] | Rape plant response rating [7, 23] | Rape plant response rating [7, 24] | Soybean plant response rating [8, 19] | Plant response rating, Soybean [8, 20] | Plant response rating, Soybean [8, 21] | Plant response rating, Soybean [8, 22] | Sugarbeets plant response rating [9, 19] | Plant response rating, Sugarbeets [9, 20] | Plant response rating, Sugarbeets [9, 21] | Plant response rating, Sugarbeets [9, 22] | Velvetleaf plant response rating [10, 17] | Velvetleaf plant response rating [10, 18] | Velvetleaf plant response rating [10, 19] | Plant response rating, Velvetleaf [10, 20] | Plant response rating, Velvetleaf [10, 21] | Plant response rating, Velvetleaf [10, 22] | Velvetleaf plant response rating [10, 24] | Wheat plant response rating [11, 17] | Wheat plant response rating [11, 18] | Wheat plant response rating [11, 19] | Plant response rating, Wheat [11, 20] | Plant response rating, Wheat [11, 21] | Plant response rating, Wheat [11, 22] | Wheat plant response rating [11, 24] | Wild oats plant response rating [12, 17] | Wild oats plant response rating [12, 18] | Wild oats plant response rating [12, 19] | Plant response rating, Wild oats [12, 21] | Wild oats plant response rating [12, 24] | Nutsedge plant response rating [13, 17] | Nutsedge plant response rating [13, 18] | Nutsedge plant response rating [13, 19] | Plant response rating, Nutsedge [13, 20] | Plant response rating, Nutsedge [13, 21] | Plant response rating, Nutsedge [13, 22] | Nutsedge plant response rating [13, 23] | Nutsedge plant response rating [13, 24] | Rice plant response rating [14, 17] | Rice plant response rating [14, 25] | S. Flatsedge plant response rating [15, 17] | S. Flatsedge plant response rating [15, 25] | S. Flatsedge plant response rating [15, 27] | Ducksalad plant response rating [16, 17] | Ducksalad plant response rating [16, 25] | Ducksalad plant response rating [16, 27]
2: Blackgrass plant response rating [2, 24] | Crabgrass plant response rating [5, 19] | Redroot pigweed plant response rating [6, 18] | Rice plant response rating [14, 27]
3: Bedstraw plant response rating [1, 17] | Bedstraw plant response rating [1, 23] | Plant response rating, Blackgrass [2, 22] | Crabgrass plant response rating [5, 17] | Plant response rating, Crabgrass [5, 20] | Soybean plant response rating [8, 17] | Soybean plant response rating [8, 18] | Soybean plant response rating [8, 24] | Plant response rating, Wild oats [12, 22] | Rice plant response rating [14, 26]
6: Blackgrass plant response rating [2, 18] | Crabgrass plant response rating [5, 24]
1: Plant response rating, Bedstraw [1, 22] | Crabgrass plant response rating [5, 23] | Plant response rating, Redroot pigweed [6, 22] | Redroot pigweed plant response rating [6, 24] | Sugarbeets plant response rating [9, 17] | Sugarbeets plant response rating [9, 18] | Sugarbeets plant response rating [9, 24]
4: Ducksalad plant response rating [16, 26]
8: Bedstraw plant response rating [1, 18]
9: Crabgrass plant response rating [5, 18] | Plant response rating, Crabgrass [5, 22]
7: Plant response rating, Crabgrass [5, 21]
